This is an account of results in patent publication US7511055B2, “Naphthyridin derivatives” (Hoffmann-La Roche Inc., priority 2005, dated 2009).

In the experiment the target is T1, human mGlu 5a receptor (Homo sapiens, UniProt P41594).
T1 construct: expressed in transfected cells; host or cells: EBNA cells (transient transfection); cell membrane homogenates
T1 sequence (P41594 21-1180 isoform P41594-2 limits assumed): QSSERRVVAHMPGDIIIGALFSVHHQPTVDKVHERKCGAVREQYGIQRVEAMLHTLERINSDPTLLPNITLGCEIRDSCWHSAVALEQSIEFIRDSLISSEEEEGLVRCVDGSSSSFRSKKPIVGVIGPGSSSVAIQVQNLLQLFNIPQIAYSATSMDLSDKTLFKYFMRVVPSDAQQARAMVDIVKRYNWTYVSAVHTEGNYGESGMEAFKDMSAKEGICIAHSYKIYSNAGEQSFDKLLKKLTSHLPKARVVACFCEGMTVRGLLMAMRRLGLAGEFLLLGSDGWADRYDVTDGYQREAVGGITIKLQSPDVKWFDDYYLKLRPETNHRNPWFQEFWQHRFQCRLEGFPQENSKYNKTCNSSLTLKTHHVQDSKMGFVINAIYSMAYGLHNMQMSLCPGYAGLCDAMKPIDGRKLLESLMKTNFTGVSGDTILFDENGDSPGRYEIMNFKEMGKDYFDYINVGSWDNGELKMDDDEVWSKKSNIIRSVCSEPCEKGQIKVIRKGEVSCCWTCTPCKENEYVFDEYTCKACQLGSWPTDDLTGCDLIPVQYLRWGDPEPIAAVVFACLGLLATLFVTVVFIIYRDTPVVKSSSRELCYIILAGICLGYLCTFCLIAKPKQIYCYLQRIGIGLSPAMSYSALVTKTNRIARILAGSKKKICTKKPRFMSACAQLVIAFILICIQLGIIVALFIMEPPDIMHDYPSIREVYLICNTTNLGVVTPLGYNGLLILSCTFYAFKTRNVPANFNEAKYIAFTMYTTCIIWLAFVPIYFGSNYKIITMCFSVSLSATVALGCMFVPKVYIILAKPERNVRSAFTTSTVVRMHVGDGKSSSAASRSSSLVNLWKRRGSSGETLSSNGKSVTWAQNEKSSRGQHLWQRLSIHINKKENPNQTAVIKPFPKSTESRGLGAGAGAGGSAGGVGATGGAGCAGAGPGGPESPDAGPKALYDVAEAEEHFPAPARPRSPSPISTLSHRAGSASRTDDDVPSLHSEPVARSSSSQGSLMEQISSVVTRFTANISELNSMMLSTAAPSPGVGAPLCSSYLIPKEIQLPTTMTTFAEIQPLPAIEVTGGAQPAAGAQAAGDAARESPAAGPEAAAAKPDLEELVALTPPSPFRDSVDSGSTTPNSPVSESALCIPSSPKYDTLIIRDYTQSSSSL
Briefly: [3H]MPEP competition binding on membranes of EBNA cells transfected with human mGlu 5a receptor. As to conditions: competition with [3H]MPEP (2 nM), 1 h at 4° C., Ki=IC50/[1+L/Kd]. As to the method:
The pharmacological activity of the compounds was tested using the following method: For binding experiments, cDNA encoding human mGlu 5a receptor was transiently transfected into EBNA cells using a procedure described by Schlaeger and Christensen [Cytotechnology 15:1-13 (1998)]. Cell membrane homogenates were stored at −80° C. until the day of assay where upon they were thawed and resuspended and polytronised in 15 mM Tris-HCl, 120 mM NaCl, 100 mM KCl, 25 mM CaCl2, 25 mM MgCl2 binding buffer at pH 7.4 to a final assay concentration of 20 μg protein/well.
Saturation isotherms were determined by addition of twelve [^3H]MPEP concentrations (0.04-100 nM) to these membranes (in a total volume of 200 μl) for 1 h at 4° C. Competition experiments were performed with a fixed concentration of [^3H]MPEP (2 nM) and IC50 values of test compounds evaluated using 11 concentrations (0.3-10,000 nM). Incubations were performed for 1 h at 4° C.
At the end of the incubation, membranes were filtered onto unifilter (96-well white microplate with bonded GF/C filter preincubated 1 h in 0.1% PEI in wash buffer, Packard BioScience, Meriden, Conn.) with a Filtermate 96 harvester (Packard BioScience) and washed 3 times with cold 50 mM Tris-HCl, pH 7.4 buffer. Nonspecific binding was measured in the presence of 10 μM MPEP. The radioactivity on the filter was counted (3 min) on a Packard Top-count microplate scintillation counter with quenching correction after addition of 45 μl of microscint 40 (Canberra Packard S.A., Zürich, Switzerland) and shaking for 20 min.
The inhibition (antagonists) curves were fitted with a four parameter logistic equation giving IC50, and Hill coefficient using iterative non linear curve fitting software (Xcel fit).
For binding experiments the Ki values of the compounds tested are given. The Ki value is defined by the following formula: Ki=IC50/[1+L/Kd] in which the IC50 values are those concentrations of the compounds tested which cause 50% inhibition of the competing radioligand ([^3H]MPEP). L is the concentration of radioligand used in the binding experiment and the Kd value of the radioligand is empirically determined for each batch of membranes prepared.
As a reminder, the Ki is a dissociation constant, usually derived from enzyme kinetics or from competition with a known ligand. As to `Cc1csc(Nc2ncc(-c3cccc(C(F)(F)F)c3)c3ccc(C)nc23)n1` [Example 43, (4-Methyl-thiazol-2-yl)-[2-methyl-5-(3-trifluoromethyl-phenyl)-[1,7]naphthyridin-8-yl]-amine], the inhibition constant (Ki) was found to be 51 nM.

In the case of `Fc1cncc(-c2cnc(Nc3ccnc(Cl)c3)c3ncccc23)c1` [Example 14, (2-Chloro-pyridin-4-yl)-[5-(5-fluoro-pyridin-3-yl)-[1,7]naphthyridin-8-yl]-amine], the Ki came to 66 nM.

As to `Cc1csc(Nc2ncc(-c3cncc(C(F)(F)F)n3)c3ccc(C)nc23)n1` [Example 81, (4-Methyl-thiazol-2-yl)-[2-methyl-5-(6-trifluoromethyl-pyrazin-2-yl)-[1,7]naphthyridin-8-yl]-amine], the inhibitory constant (Ki) came to 51 nM.

For `Cc1ccc2c(-c3cccc(F)c3)cnc(Nc3ccn(C)n3)c2n1` [Example 68, [5-(3-Fluoro-phenyl)-2-methyl-[1,7]naphthyridin-8-yl]-(1-methyl-1H-pyrazol-3-yl)-amine], the Ki amounted to 38 nM.

As for `Cc1cccc(Nc2ncc(-c3cccnc3)c3cccnc23)n1` [Example 6, (6-Methyl-pyridin-2-yl)-(5-pyridin-3-yl-[1,7]naphthyridin-8-yl)-amine], the Ki turned out to be 33 nM.

For the compound `Cc1csc(Nc2nccc3cccnc23)n1` [Example 5, (4-Methyl-thiazol-2-yl)-[1,7]naphthyridin-8-yl-amine], the Ki came out at 62 nM.

As to `Clc1cccc(Nc2nccc3cccnc23)c1` [Example 2, (3-Chloro-phenyl)-[1,7]naphthyridin-8-yl-amine], the Ki was 89 nM.

Consider `Clc1cc(Nc2ncc(-c3cccnc3)c3cccnc23)ccn1` [Example 8, (2-Chloro-pyridin-4-yl)-(5-pyridin-3-yl-[1,7]naphthyridin-8-yl)-amine], for which the inhibition constant Ki was determined as 38 nM.

As for `Clc1cc(Nc2ncc(-c3cncnc3)c3cccnc23)ccn1` [Example 18, (2-Chloro-pyridin-4-yl)-(5-pyrimidin-5-yl-[1,7]naphthyridin-8-yl)-amine], the Ki was 41 nM.

Take `COc1cccc(-c2cnc(Nc3nc(C)cs3)c3nc(C)ccc23)c1` [Example 42, [5-(3-Methoxy-phenyl)-2-methyl-[1,7]naphthyridin-8-yl]-(4-methyl-thiazol-2-yl)-amine]: the Ki was 56 nM.

In the case of `Fc1ccc(Nc2ncc(-c3cncc(F)c3)c3cccnc23)nc1` [Example 15, (5-Fluoro-pyridin-2-yl)-[5-(5-fluoro-pyridin-3-yl)-[1,7]naphthyridin-8-yl]-amine], the Ki is 66 nM.

Regarding `Clc1cccc(Nc2ncc(-c3ccc(Cl)nc3)c3cccnc23)c1` [Example 11, (3-Chloro-phenyl)-[5-(6-chloro-pyridin-3-yl)-[1,7]naphthyridin-8-yl]-amine], the Ki was 8 nM.

For `Cc1cccc(Nc2nccc3cccnc23)n1` [Example 1, (6-Methyl-pyridin-2-yl)-[1,7]naphthyridin-8-yl-amine], the inhibition constant Ki stood at 25 nM.

With `Cc1ccc(Nc2ncc(-c3cccnc3)c3cccnc23)nc1` [Example 9, (5-Methyl-pyridin-2-yl)-(5-pyridin-3-yl-[1,7]naphthyridin-8-yl)-amine], the Ki amounted to 86 nM.

Turning to `Fc1ccc(Nc2ncc(-c3cccnc3)c3cccnc23)nc1` [Example 10, (5-Fluoro-pyridin-2-yl)-(5-pyridin-3-yl-[1,7]naphthyridin-8-yl)-amine], the Ki was found to be 19 nM.

In the case of `COc1ccc(-c2cnc(Nc3ccnc(Cl)c3)c3ncccc23)cn1` [Example 12, (2-Chloro-pyridin-4-yl)-[5-(6-methoxy-pyridin-3-yl)-[1,7]naphthyridin-8-yl]-amine], the Ki was 56 nM.

Regarding `COc1cncc(-c2cnc(Nc3ccc(F)cn3)c3ncccc23)c1` [Example 17, (5-Fluoro-pyridin-2-yl)-[5-(5-methoxy-pyridin-3-yl)-[1,7]naphthyridin-8-yl]-amine], the inhibitory constant (Ki) came out at 41 nM.

For `Clc1cccc(Nc2ncc(-c3cccnc3)c3cccnc23)c1` [Example 7, (3-Chloro-phenyl)-(5-pyridin-3-yl-[1,7]naphthyridin-8-yl)-amine], the inhibition constant Ki is 18 nM.

For the compound `Fc1ccc(Nc2ncc(-c3cncnc3)c3cccnc23)nc1` [Example 19, (5-Fluoro-pyridin-2-yl)-(5-pyrimidin-5-yl-[1,7]naphthyridin-8-yl)-amine], the Ki is 44 nM.
